{"source": "patent US20220274980A1", "about": "“PHARMACOLOGICAL INHIBITORS OF THE ENL YEATS DOMAIN” (priority 2019, published 2022)", "key": {"[1]": {"assay": "Half-life in human liver microsomes", "type": "in vitro ADME", "settings": "read-out: t1/2 (min) human liver microsomes"}, "[2]": {"molecular_target": "T1, ENL localization to chromatin of target gene promoters (Homo sapiens, UniProt Q03111)", "T1 construct": "11 cells; endogenous in cells; host or cells: MV4;11", "T1 sequence (Q03111 1-559)": "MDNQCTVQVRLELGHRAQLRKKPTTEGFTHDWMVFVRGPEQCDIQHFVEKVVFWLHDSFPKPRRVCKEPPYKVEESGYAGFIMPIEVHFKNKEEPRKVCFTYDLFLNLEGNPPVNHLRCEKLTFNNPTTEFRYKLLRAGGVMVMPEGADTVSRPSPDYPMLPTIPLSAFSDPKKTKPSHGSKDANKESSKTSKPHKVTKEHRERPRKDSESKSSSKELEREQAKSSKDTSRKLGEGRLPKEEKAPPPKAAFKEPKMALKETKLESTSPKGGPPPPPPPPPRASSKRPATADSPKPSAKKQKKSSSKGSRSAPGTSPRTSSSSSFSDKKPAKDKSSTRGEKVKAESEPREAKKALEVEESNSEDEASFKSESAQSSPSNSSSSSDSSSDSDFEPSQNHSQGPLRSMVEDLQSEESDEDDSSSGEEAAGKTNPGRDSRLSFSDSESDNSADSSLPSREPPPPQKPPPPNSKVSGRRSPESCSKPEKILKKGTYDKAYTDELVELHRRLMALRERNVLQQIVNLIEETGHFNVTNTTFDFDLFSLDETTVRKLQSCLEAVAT", "assay": "ENL ChIP-qPCR in MV4;11 cells", "type": "cell-based", "settings": "HOX intergenic region as negative control locus", "protocol": "ChIP-qPCR. Chromatin immunoprecipitation (ChIP)-qPCR of ENL was performed in MV4; 11 cells using 50 million cells per treatment. Crosslinking was performed in batches of 50 million cells in 50 mL tissue culture media by addition of 1/10 volume of 10× crosslinking solution (11% formaldehyde, 50 mM HEPES pH 7.3, 100 mM NaCl, 1 mM EDTA pH 8.0, 0.5 mM EGTA ph 8.0). After 10 min of crosslinking at room temperature, formaldehyde was quenched with 125 mM glycine, cells were then washed three times in PBS pH 7.4, flash frozen in liquid nitrogen, and stored at −80° C. Frozen pellets were thawed on ice, resuspended in cold lysis buffer 1 (LB1; 5 mL per 50 million cells; 50 mM HEPES pH 7.3, 140 mM NaCl, 1 mM EDTA, 10% glycerol, 0.5% NP-40, and 0.25% Triton X-100, Roche protease inhibitor cocktail), and rotated for 10 minutes at 4° C. LB1 was removed and pelletswere resuspended in cold lysis buffer 2 (LB2; 5 mL per 50 million cells; 10 mM Tris-HCl pH 8.0, 200 mM NaCl, 1 mM EDTA pH 8.0 and 0.5 mM EGTA pH 8.0, Roche protease inhibitor cocktail) and rotated for 10 minutes at 4° C. LB2 was removed and pellets were resuspended in cold sonication buffer (1.5 mL per 50 million cells; 50 mM HEPES pH 7.3, 140 mM NaCl, 1 mM EDTA, 1 mM EGTA, 1% Triton X-100, 0.1% Na-deoxycholate, 0.1% SDS, Roche protease inhibitor cocktail). […] Results were quantified as percentage of the input sample."}, "[3]": {"tested_on": "ENL target gene expression (MYC, HOXA9)", "assay": "qRT-PCR of ENL target gene expression", "type": "cell-based", "text": "Quantitative reverse-transcriptase PCR (qRT-PCR). […] The ddCt method was used to quantify fold change differences in gene expression between control and treated samples (using expression of B2M for normalization)."}, "[4]": {"assay": "Half-life in mouse liver microsomes", "type": "in vitro ADME", "settings": "read-out: t1/2 (min) mouse liver microsomes"}}}
{"smiles": "O=C(NC1CCC1)c1ccc2nc(-c3cccc(NS(=O)(=O)NCCN4CCCCC4)c3)cn2c1", "note": "[Compound 93]", "values": [{"measurement": "half-life", "setting": "[1]", "result": 22.6, "unit": "min"}, {"measurement": "localization of ENL to chromatin of target gene promoters by ChIP-qPCR", "setting": "[2]", "result": "prevents localization of ENL to chromatin of target gene promoters"}, {"measurement": "suppression of ENL target gene expression", "setting": "[3]", "result": "Suppression of ENL target gene expression"}, {"measurement": "half-life", "setting": "[4]", "result": 9.98, "unit": "min"}]}
